Structures can show the parent of a compound that is named as a salt. Where two headings read alike, the source gives them in different places.
Columns and labels:
[1] = test system: human PBMC; assay: Mitogenic activity assay, [3H]dThd incorporation in human PBMC with or without PHA; type: cell-based; settings: concentrations up to 200 μg/ml, absence of PHA
Experimental: The mitogenic activity assay was conducted as follows. Human PBMC were isolated from buffy coats and brought in RPMI-1640 cell culture medium supplemented with 10% FCS and 2 mM L-glutamine. The cell cultures were exposed to several concentrations of the test compounds for 3 days in the absence or presence of PHA (phytohemagglutinin) (Murex Biotech Ltd., Dartford, UK) at 2 μg/ml. Subsequently, 0.25 μCi [CH3^−3H]dThd was added and, after 20 hr incubation at 37° C., the cells were precipitated in the presence of 10% TCA and the precipitate was washed twice with 10% TCA, twice with 5% TCA and once with 70% ethanol. The precipitate, containing [^3H]DNA, was then examined for radioactivity in a liquid scintillation counter.

[2] = test system: HIV-1 (IIIB); assay: microbe, parasite or virus in culture; settings: Human immunodeficiency virus 1, IIIB, CCRF-CEM
[3] = target: glycine oxidase from Bacillus subtilis (Bacillus subtilis, UniProt O31616)
glycine oxidase from Bacillus subtilis, sequence (O31616 whole entry): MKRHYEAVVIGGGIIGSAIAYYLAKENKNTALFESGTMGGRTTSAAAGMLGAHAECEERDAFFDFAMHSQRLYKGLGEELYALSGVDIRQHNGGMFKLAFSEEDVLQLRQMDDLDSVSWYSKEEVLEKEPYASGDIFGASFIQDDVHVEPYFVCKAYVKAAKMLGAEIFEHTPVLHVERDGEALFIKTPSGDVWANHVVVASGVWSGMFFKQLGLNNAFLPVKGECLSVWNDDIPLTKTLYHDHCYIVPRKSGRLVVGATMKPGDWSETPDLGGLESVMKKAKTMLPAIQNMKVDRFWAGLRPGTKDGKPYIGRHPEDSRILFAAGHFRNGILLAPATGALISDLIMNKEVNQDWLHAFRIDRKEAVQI

[4] = Conversion of G-NH2 to modified G-NH2 by pig plasma (cation exchange HPLC); type: in vitro ADME; settings: 37° C.
Experimental: Various concentrations of G-NH2 were mixed with either 90% pig plasma or 90% dialyzed pig plasma in PBS and the reactions were conducted at 37° C. for 24 hours. Subsequently, aliquots of the mixtures were separated by cation exchange HPLC, as described previously, and the conversion of G-NH2 to modified G-NH2 was evaluated. […] Saturation of the enzyme activity of cofactor(s) in pig plasma (90% in PBS) occurred between 1,000 μM and 10,000 μM G-NH2.

[5] = test system: CEM cells

Row | Compound | mitogenic activity against human PBMCs [1] | EC50 ([2]; read-out: EC50 (CEM) HIV-1 (IIIB)) [µM] | EC50 ([2]; read-out: EC50 (CEM) HIV-1(IIIB)) [µM] | conversion of G-NH2 to Metabolite X [3] | conversion to modified G-NH2 (24 hr) (percent conversion) Pig plasma ([4]; 18 μM G-NH2, plasma 90% in PBS) [%] | conversion to modified G-NH2 (24 hr) (percent conversion) Pig plasma ([4]; 100 μM G-NH2, plasma 90% in PBS) [%] | conversion to modified G-NH2 (24 hr) (percent conversion) Pig plasma ([4]; 1,000 μM G-NH2, plasma 90% in PBS) [%] | conversion to modified G-NH2 (24 hr) (percent conversion) Pig plasma ([4]; 10,000 μM G-NH2, plasma 90% in PBS) | CC50 [5] [µM] | EC50 [5] [µM] | no cytotoxicity at concentrations as high as [5] [µM]
1 | NC(=O)C(N)O (stereo not drawn) [AlphaHGA, α-Hydroxy-glycinamide hydrochloride] | non-mitogenic | 40 ± 8.2 | 43 ± 5.8 | – | – | – | – | – | – | – | –
2 | NCC(N)=O [G-NH2, glycinamide] | – | – | – | unable to convert | 99.7 | 99.7 | 98.7 | ˜24.5% | > 2000 | > 2000 | 1500 to 2000

— US20080076824A1, “Compounds That Inhibit Replication Of Human Immunodeficiency Virus” (priority 2004, published 2008)
